Experiments:
Format in all cases: physicochemical
rituximab [1] = assay: Aggregation of rituximab formulations on storage, % HMWS by size exclusion chromatography; settings: for effect on the rate of aggregation: Example 5: rituximab 140 mg/ml
Experimental: (§1) Formulations of protein therapeutics, rituximab and certolizumab pegol, were prepared either in the absence or in the presence of various oligomers of ethyleneimine. The following products were used as the starting material: MabThera® (rituximab) and Cimzia® (certolizumab pegol). The compositions of the two products are as follows:
(§2) In order to prepare the formulations for testing, it was necessary to remove the original excipients and replace them with the selected excipients. The following procedure was used to prepare the formulations for testing: Original compositions were removed from the manufacturer's container and dialysed in 3.5 kDa cut-off dialysis cassettes (Thermo Pierce) at 2-8° C., using three changes for a minimum of 4 hours in each, including one overnight incubation.
(§3) The background solutions, containing the new excipients and adjusted to the required pH, were added to the dialysed proteins to achieve the required concentration of excipients and the protein in the final composition. The formulated samples were placed into storage at 40° C. or at 5° C., and stability was tested after a given period of time. The stability of the proteins was tested in compositions containing oligomers of ethyleneimine and compared to a ‘Control formulation’ with identical background in the absence of the oligomers.
(§4) The amount of high molecular weight species is measured using a 300×7.8 mm S3000 (or equivalent) size-exclusion column with a guard column. The mobile phase is potassium phosphate pH 6.5, with a flow rate of 0.4 ml/min, injection volume of 1 μl and detected at 210 and 280 nm. The results are expressed as % high molecular species (HMWS), i.e. sum of all peak areas corresponding to aggregated protein over the sum of all protein-related peaks on the chromatogram. […] However, within a given time-point the samples are tested using the column in the same condition, so the values generated within the time-point represent a very good indication of the relative stability of the protein in the compositions tested.
(§5) Rituximab was formulated at 100 mg/ml in the following background solution: EDTA (0.2 mM), methionine (1 mM), histidine (10 mM). The pH was adjusted to 6.5.
Rituximab was formulated at 100 mg/ml in the following background solution: EDTA (0.2 mM), methionine (1 mM), histidine (10 mM), in the presence of arginine (80 mM) as a tonicity modifier. The pH of all formulations was adjusted to 6.5. For comparison, the formulation of commercial liquid rituximab product (‘Original formulation’ also with rituximab at 100 mg/ml) was also included.
Rituximab was formulated at 100 mg/ml in the following background solution: EDTA (0.2 mM), methionine (1 mM) histidine (10 mM) and trehalose (200 mM). The pH was adjusted to 6.5.
Rituximab was formulated at 140 mg/ml in the following background solution: EDTA (0.2 mM), methionine (1 mM), histidine (10 mM) and trehalose (200 mM). The pH was adjusted to 6.5.

Certolizumab pegol = assay: Aggregation of certolizumab pegol formulations on storage, % HMWS by size exclusion chromatography; settings: Certolizumab pegol 100 mg/ml, 40° C.
Experimental: as §1, §2, §3, §4
Certolizumab pegol was formulated at 100 mg/ml in histidine buffer (10 mM, pH 6.0) in the presence of either NaCl (150 mM) or 1,2-propandiol (200 mM) as tonicity modifiers.

rituximab [2] = assay: Visual assessment of rituximab formulations on storage; settings: rituximab 100 mg/ml, trehalose 200 mM
Experimental: as §2, §3
Vials are placed in a suitable location with a suitably selected contrasting background, and under sufficient and appropriate illumination to highlight any potential or detected visual deviations. A control (or freshly prepared material) is placed alongside for direct comparison. Solutions are classed as clear if there are no visual imperfections; as cloudy if there is a significant change in the opacity of the material; and if there are insoluble fractions, or if particles are visible towards the bottom of the vial, a precipitate is deemed to have been formed.
as §5

[3] = Example 4: rituximab 100 mg/ml, trehalose 200 mM, pH 6.5, 40° C., compared with background formulation without oligomer
[4] = rituximab 100 mg/ml, trehalose 200 mM, pH 6.5, 40° C., additive 0.2 mg/ml
[5] = rituximab 100 mg/ml, trehalose 200 mM, pH 6.5, 40° C., additive 1 mg/ml
[6] = rituximab 100 mg/ml, trehalose 200 mM, pH 6.5, 40° C., additive 5 mg/ml
[7] = Example 4: rituximab 100 mg/ml, trehalose 200 mM, pH 6.5, 40° C.
[8] = trehalose 200 mM, pH 6.5, 40° C.
[9] = rituximab 140 mg/ml, trehalose 200 mM, pH 6.5, 40° C., additive 0.03 mg/ml
[10] = rituximab 140 mg/ml, trehalose 200 mM, pH 6.5, 40° C., additive 1 mg/ml
[11] = rituximab 140 mg/ml, trehalose 200 mM, pH 6.5, 40° C., additive 5 mg/ml
[12] = rituximab 140 mg/ml, trehalose 200 mM, pH 6.5, 40° C., additive […]
[13] = histidine 10 mM pH 6.0, 1,2-propanediol 200 mM, additive 3 mg/ml
[14] = histidine 10 mM pH 6.0, NaCl 150 mM, additive 3 mg/ml
[15] = rituximab 140 mg/ml, trehalose 200 mM, pH 6.5, 40° C., additive 0.02 mg/ml
[16] = rituximab 140 mg/ml, trehalose 200 mM, pH 6.5, 40° C., additive 0.1 mg/ml
[17] = rituximab 100 mg/ml, arginine 80 mM, pH 6.5, 40° C., additive 0.1 mg/ml
[18] = rituximab 100 mg/ml, arginine 80 mM, pH 6.5, 40° C., additive 0.5 mg/ml
[19] = rituximab 100 mg/ml, arginine 80 mM, pH 6.5, 40° C., additive 2.5 mg/ml
[20] = rituximab 100 mg/ml, trehalose 200 mM, pH 6.5, 5° C., additive 0.1 mg/ml
[21] = rituximab 100 mg/ml, trehalose 200 mM, pH 6.5, 5° C., additive 0.5 mg/ml
[22] = rituximab 100 mg/ml, trehalose 200 mM, pH 6.5, 5° C., additive 2.5 mg/ml
[23] = rituximab 100 mg/ml, trehalose 200 mM, pH 6.5, 40° C., additive 0.1 mg/ml
[24] = rituximab 100 mg/ml, trehalose 200 mM, pH 6.5, 40° C., additive 0.5 mg/ml
[25] = rituximab 100 mg/ml, trehalose 200 mM, pH 6.5, 40° C., additive 2.5 mg/ml
[26] = rituximab 140 mg/ml, trehalose 200 mM, pH 6.5, 40° C., additive 0.2 mg/ml
[27] = histidine 10 mM pH 6.0, 1,2-propanediol 200 mM, additive 35.9 mg/ml
[28] = histidine 10 mM pH 6.0, NaCl 150 mM, additive 35.9 mg/ml

NCCN [Ethylenediamine, reference compound]
effect on the rate of formation of HMWS (rituximab [1]; [3]): less effective in reducing the formation of HMWS
% HMWS 16 weeks (rituximab [1]; [4]): 2.44%
% HWMS 0 weeks (rituximab [1]; [4]): 0.49%
% HMWS 16 weeks (rituximab [1]; [5]): 2.27%
% HWMS 0 weeks (rituximab [1]; [5]): 0.72%
% HMWS 16 weeks (rituximab [1]; [6]): 2.08%
% HWMS 0 weeks (rituximab [1]; [6]): 0.78%

NCCNCCNCCN [Triethylenetetramine]
rate of aggregation compared with Original formulation (rituximab [1]; [7]): lower
effect on the rate of formation of HMWS (rituximab [1]; [3]): considerably reduce the rate of formation of HMWS in a dose dependent manner
effect on the rate of aggregation (rituximab [1]; [8]): considerable, dose-dependent reduction in the aggregation rate
% HMWS 16 weeks (rituximab [1]; [4]): 0.81%
% HWMS 0 weeks (rituximab [1]; [4]): 0.74%
% HMWS 16 weeks (rituximab [1]; [5]): 0.56%
% HWMS 0 weeks (rituximab [1]; [5]): 0.84%
% HMWS 16 weeks (rituximab [1]; [6]): 0.51%
% HWMS 0 weeks (rituximab [1]; [6]): 0.74%
% HMWS 0 weeks (rituximab [1]; [9]): 0.36%
% HMWS 12 weeks (rituximab [1]; [9]): 0.29%
% HMWS 26 weeks (rituximab [1]; [9]): 4.18%
% HMWS 0 weeks (rituximab [1]; [10]): 0.36%
% HMWS 12 weeks (rituximab [1]; [10]): 0.27%
% HMWS 26 weeks (rituximab [1]; [10]): 0.45%
% HMWS 0 weeks (rituximab [1]; [11]): 0.26%
% HMWS 12 weeks (rituximab [1]; [11]): 0.17%
% HMWS 26 weeks (rituximab [1]; [11]): 0.64%
% HMWS 0 weeks (rituximab [1]; [12]): 0.35%
% HMWS 12 weeks (rituximab [1]; [12]): 0.32%
% HMWS 26 weeks (rituximab [1]; [12]): 3.26%
% HMWS 0 weeks (Certolizumab pegol; histidine 10 mM pH 6.0, 1,2-propanediol 200 mM, additive 1 mg/ml): 0.55%
% HMWS 0 weeks (Certolizumab pegol; [13]): 0.49%
% HMWS 8 weeks (Certolizumab pegol; [13]): 0.85%
% HMWS 0 weeks (Certolizumab pegol; histidine 10 mM pH 6.0, NaCl 150 mM, additive 1 mg/ml): 0.63%
% HMWS 0 weeks (Certolizumab pegol; [14]): 0.49%

NCCNCCN [Diethylenetriamine]
rate of aggregation compared with Original formulation (rituximab [1]; [7]): lower
effect on the rate of formation of HMWS (rituximab [1]; [3]): considerably reduce the rate of formation of HMWS in a dose dependent manner
effect on the rate of aggregation (rituximab [1]; [8]): considerable, dose-dependent reduction in the aggregation rate
% HMWS 16 weeks (rituximab [1]; [4]): 0.94%
% HWMS 0 weeks (rituximab [1]; [4]): 0.81%
% HMWS 16 weeks (rituximab [1]; [5]): 0.70%
% HWMS 0 weeks (rituximab [1]; [5]): 0.70%
% HMWS 16 weeks (rituximab [1]; [6]): 0.67%
% HWMS 0 weeks (rituximab [1]; [6]): 0.79%
% HMWS 0 weeks (rituximab [1]; [15]): 0.37%
% HMWS 12 weeks (rituximab [1]; [15]): 0.91%
% HMWS 26 weeks (rituximab [1]; [15]): 4.09%
% HMWS 0 weeks (rituximab [1]; [16]): 0.38%
% HMWS 12 weeks (rituximab [1]; [16]): 0.35%
% HMWS 26 weeks (rituximab [1]; [16]): 0.89%
% HMWS 0 weeks (rituximab [1]; [10]): 0.38%
% HMWS 12 weeks (rituximab [1]; [10]): 0.24%
% HMWS 0 weeks (rituximab [1]; [11]): 0.37%
% HMWS 12 weeks (rituximab [1]; [11]): 0.29%
% HMWS 26 weeks (rituximab [1]; [11]): 1.83%

Cl.Cl.Cl.Cl.Cl.NCCNCCNCCNCCN [Tetraethylenepentamine, tetraethylenepentamine pentahydrochloride]
effect on the rate of formation of HMWS (rituximab [1]; Example 1: rituximab 100 mg/ml, trehalose, pH 6.5, 40° C. and 5° C.): reduce considerably the rate of formation of HMWS
effect on the rate of formation of HMWS (rituximab [1]; Example 3: rituximab 100 mg/ml, arginine 80 mM, pH 6.5, 40° C., compared with background solutions without oligomer): reduce considerably the rate of formation of HMWS
% HMWS 0 weeks (rituximab [1]; [17]): 1.58%
% HMWS 12 weeks (rituximab [1]; [17]): 2.08%
% HMWS 0 weeks (rituximab [1]; [18]): 1.53%
% HMWS 12 weeks (rituximab [1]; [18]): 1.89%
% HMWS 0 weeks (rituximab [1]; [19]): 1.47%
% HMWS 12 weeks (rituximab [1]; [19]): 0.85%
% HMWS 8 weeks (rituximab [1]; [20]): 1.23%
% HMWS T0 (rituximab [1]; [20]): 1.40%
% HMWS 8 weeks (rituximab [1]; [21]): 1.22%
% HMWS T0 (rituximab [1]; [21]): 1.44%
% HMWS 8 weeks (rituximab [1]; [22]): 1.21%
% HMWS T0 (rituximab [1]; [22]): 1.40%
% HMWS 8 weeks (rituximab [1]; [23]): 1.79%
% HMWS T0 (rituximab [1]; [23]): 1.40%
% HMWS 8 weeks (rituximab [1]; [24]): 1.85%
% HMWS T0 (rituximab [1]; [24]): 1.44%
% HMWS 8 weeks (rituximab [1]; [25]): 1.45%
% HMWS T0 (rituximab [1]; [25]): 1.40%
Visual (8 weeks) (rituximab [2]; pH 6.5, 5° C., additive 0.1 mg/ml): Clear
Visual (8 weeks) (rituximab [2]; pH 6.5, 5° C., additive 0.5 mg/ml): Clear
Visual (8 weeks) (rituximab [2]; pH 6.5, 5° C., additive 2.5 mg/ml): Clear
Visual (8 weeks) (rituximab [2]; pH 6.5, 40° C., additive 0.1 mg/ml): Clear
Visual (8 weeks) (rituximab [2]; pH 6.5, 40° C., additive 0.5 mg/ml): Clear
Visual (8 weeks) (rituximab [2]; pH 6.5, 40° C., additive 2.5 mg/ml): Clear

2K mPEG valerate PEI800 [Compound (4), reference compound]
effect on the rate of formation of HMWS (rituximab [1]; [3]): reduced the rate of formation of HMWS in a dose dependent manner
% HMWS 16 weeks (rituximab [1]; [4]): 2.57%
% HWMS 0 weeks (rituximab [1]; [4]): 0.69%
% HMWS 16 weeks (rituximab [1]; [5]): 1.06%
% HWMS 0 weeks (rituximab [1]; [5]): 0.79%
% HMWS 16 weeks (rituximab [1]; [6]): 0.93%
% HWMS 0 weeks (rituximab [1]; [6]): 0.69%

5K mPEG Propyl Triethylenetetramine Ethanol [Compound (2)]
effect on the rate of aggregation (rituximab [1]; [8]): reduction in the rate of aggregation
% HMWS 0 weeks (rituximab [1]; [26]): 0.25%
% HMWS 12 weeks (rituximab [1]; [26]): 1.31%
% HMWS 26 weeks (rituximab [1]; [26]): 4.79%
% HMWS 0 weeks (rituximab [1]; [10]): 0.40%
% HMWS 12 weeks (rituximab [1]; [10]): 1.17%
% HMWS 26 weeks (rituximab [1]; [10]): 4.44%
% HMWS 0 weeks (rituximab [1]; [11]): 0.35%
% HMWS 12 weeks (rituximab [1]; [11]): 0.97%
% HMWS 26 weeks (rituximab [1]; [11]): 3.60%
% HMWS 0 weeks (Certolizumab pegol; [13]): 0.64%
% HMWS 8 weeks (Certolizumab pegol; [13]): 2.02%
% HMWS 0 weeks (Certolizumab pegol; [27]): 0.81%
% HMWS 8 weeks (Certolizumab pegol; [27]): 2.47%
% HMWS 0 weeks (Certolizumab pegol; [14]): 0.66%
% HMWS 8 weeks (Certolizumab pegol; [14]): 3.32%
% HMWS 0 weeks (Certolizumab pegol; [28]): 0.79%
% HMWS 8 weeks (Certolizumab pegol; [28]): 2.39%
